From ChEMBL document CHEMBL3137667, “[Drug-induced liver injury; fourteenth updated edition of the bibliographic database of liver injuries and related drugs]” (Gastroenterol Clin Biol, 2004)

What was measured:
[1] = Highest frequency of moderate liver toxicity observed during clinical trials, expressed as a percentage. [column '% BIOL' in source]; conditions: human
[2] = Highest frequency of acute liver toxicity observed during clinical trials, expressed as a percentage. [column '% AIGUE' in source]; conditions: human
[3] = human, serum
[4] = human, serum; remark: listed apart in the source
[5] = human
[6] = human; remark: listed apart in the source
[7] = human; remark: listed apart in the source
[8] = human, serum, 4383 h
[9] = human; remark: listed apart in the source
[10] = human; remark: listed apart in the source
[11] = human; remark: listed apart in the source
[12] = human; remark: listed apart in the source
[13] = human; remark: listed apart in the source
[14] = human; remark: listed apart in the source
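Wherever Hepatotoxicity (association with vascular disease) is given: count of indexed literature references reporting vascular liver injury in humans, e.g. peliosis hepatitis, hepatic veno-occlusive disease or Budd-Chiari syndrome.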
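Wherever Hepatotoxicity (benign tumour) is given: value is a count of indexed literature references citing a benign tumour confirmed by histopathology.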
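Wherever Hepatotoxicity (choleostasis) is given: human cholestatic liver injury, shown by histopathology or by peak ALT or AST elevation over alkaline phosphatase ratio below 2, value counts indexed literature reports.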
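Wherever Hepatotoxicity (chronic liver disease) is given: chronic liver injury confirmed by histopathology or persistently raised serum aminotransferase activity beyond 6 months, value given as the count of indexed literature references.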
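Wherever Hepatotoxicity (cirrhosis) is given: value is a count of indexed literature references reporting cirrhosis confirmed by histopathology.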
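Wherever Hepatotoxicity (cytolytic) is given: human cytolytic liver injury, shown by histopathology or by a ratio above 5 of peak ALT or AST elevation to alkaline phosphatase elevation, value counts indexed references.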
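Wherever Hepatotoxicity (granulomatous hepatitis) is given: value is a count of indexed literature references reporting granulomatous liver disease confirmed by histopathology.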
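Wherever Hepatotoxicity (malignant tumour) is given: malignant tumour confirmed by histopathology, value gives the count of indexed literature references reporting it.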
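Wherever Hepatotoxicity (severe hepatitis) is given: human clinical data: severe hepatitis, meaning potentially life-threatening liver failure or clinically observed cases, the value counts how many indexed literature references report it.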
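Wherever Hepatotoxicity (steatosis) is given: steatosis confirmed by histopathology, value is the count of indexed references.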

| Substance | Hepatotoxicity (moderate) [1] | Hepatotoxicity (acute) [2] | Hepatotoxicity (moderate) [3] | Hepatotoxicity (acute) [4] | Hepatotoxicity (cytolytic) [5] | Hepatotoxicity (choleostasis) [6] | Hepatotoxicity (severe hepatitis) [7] | Hepatotoxicity (chronic liver disease) [8] | Hepatotoxicity (cirrhosis) [9] | Hepatotoxicity (granulomatous hepatitis) [10] | Hepatotoxicity (association with vascular disease) [11] | Hepatotoxicity (steatosis) [12] | Hepatotoxicity (malignant tumour) [13] | Hepatotoxicity (benign tumour) [14] |
| --- | --- | --- | --- | --- | --- | --- | --- | --- | --- | --- | --- | --- | --- | --- |
| ADALIMUMAB | 12.1% | 0% | 1 | 0 | 0 | 0 | 0 | 0 | 0 | 0 | 0 | 0 | 0 | 0 |
| BEMIPARIN SODIUM | 0% | 0% | 1 | 0 | 0 | 0 | 0 | 0 | 0 | 0 | 0 | 0 | 0 | 0 |
| CAPROMAB PENDETIDE | < 1% | 0% | 1 | 0 | 0 | 0 | 0 | 0 | 0 | 0 | 0 | 0 | 0 | 0 |
| CHOLESTYRAMINE | 30% | 0% | 11 | 0 | 0 | 0 | 0 | 0 | 0 | 0 | 0 | 0 | 0 | 0 |
| COLISTIN | 0% | 0% | 1 | 0 | 0 | 0 | 0 | 0 | 0 | 0 | 0 | 0 | 0 | 0 |
| DENILEUKIN DIFTITOX | 45% | 10% | 3 | 1 | 1 | 0 | 0 | 0 | 0 | 0 | 0 | 0 | 0 | 0 |
| EPOETIN ALFA | 20% | 0% | 4 | 0 | 0 | 0 | 0 | 0 | 0 | 0 | 0 | 0 | 0 | 0 |
| ETARACIZUMAB | 77.8% | 0% | 1 | 0 | 0 | 0 | 0 | 0 | 0 | 0 | 0 | 0 | 0 | 0 |
| GALLIUM | 28.6% | 21.4% | 1 | 1 | 0 | 1 | 0 | 0 | 0 | 0 | 0 | 0 | 0 | 0 |
| GENTAMICIN | 14.3% | 0% | 7 | 0 | 0 | 0 | 0 | 0 | 0 | 0 | 0 | 0 | 0 | 0 |
| INTERLEUKIN 1BETA | 75% | 0% | 1 | 0 | 0 | 0 | 0 | 0 | 0 | 0 | 0 | 0 | 0 | 0 |
| LENTINAN | 2% | 0% | 2 | 0 | 0 | 0 | 0 | 0 | 0 | 0 | 0 | 0 | 0 | 0 |
| LOBAPLATIN | 3.7% | 0% | 1 | 0 | 0 | 0 | 0 | 0 | 0 | 0 | 0 | 0 | 0 | 0 |
